Test results reported in patent publication US20130012432A1, “Peptides for Treatment of Obesity” (Novo Nordisk A/S, priority 2010, published 2013).
Values after ≈ are worked out from the molar mass of the structure shown. Positions of bridges follow the written chain, without caps; N, C: chain ends. Non-standard residues stand in square brackets, D forms with d. Residues, ends and D or L forms follow the SMILES beside them. Groups on a side chain read outwards from the residue. *: point of attachment. Palmitoyl(16-(5-tetrazolyl)) = O=C(CCCCCCCCCCCCCCCc1nnn[nH]1)*; Lys(CH2CO2H)2 = N[C@@H](CCCCN(CC(=O)O)CC(=O)O)C(=O)O; C17 diacid = O=C(O)CCCCCCCCCCCCCCCC(=O)*; C16 diacid = O=C(O)CCCCCCCCCCCCCCC(=O)*; Orn = NCCC[C@H](N)C(=O)O; AEEA = NCCOCCOCC(=O)O

Experiments:
physchem = experiment: physchem
Protocol: From a stock solution in vehicle, either H2O or 10 mM phosphate, containing 1 mg (as weighed) compound per ml, 8-11 aliquots are withdrawn and pH-adjusted individually with HCl/NaOH, to cover the whole pH range.

MC1 receptor = MC1 receptor (Homo sapiens, UniProt Q01726); experiment: biochemical
Outline: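 Compounds competed against 125I-NDP-α-MSH (22 pM final) for binding to stably MC1-expressing BHK cell membranes, 30 °C for 90 min in HEPES pH 7.4 buffer with 0.1% HSA or ovalbumin. Bound ligand collected by filtration and counted; binding curves analysed by non-linear regression.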

Sequence of MC1 receptor (Q01726 whole entry): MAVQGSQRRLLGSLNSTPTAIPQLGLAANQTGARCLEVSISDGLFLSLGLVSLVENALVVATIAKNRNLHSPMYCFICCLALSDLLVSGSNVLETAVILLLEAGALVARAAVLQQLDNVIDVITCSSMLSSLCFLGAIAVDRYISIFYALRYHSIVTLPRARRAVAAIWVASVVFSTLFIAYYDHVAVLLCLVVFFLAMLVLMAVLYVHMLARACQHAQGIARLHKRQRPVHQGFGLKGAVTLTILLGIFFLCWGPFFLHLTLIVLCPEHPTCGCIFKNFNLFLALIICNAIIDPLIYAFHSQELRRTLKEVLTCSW

## CC(=O)N[C@H]1CCCNC(=O)CC[C@@H](C(=O)N2CCC[C@H]2C(=O)N[C@@H](CO)C(=O)N[C@@H](CO)C(=O)N[C@@H](CO)C(=O)N[C@@H](CCCCN(CC(=O)O)CC(=O)O)C(=O)N[C@@H](CO)C(=O)N[C@@H](CO)C(=O)N[C@@H](CCCCNC(=O)COCCOCCNC(=O)CCCCCCCCCCCCCCCC(=O)O)C(N)=O)NC(=O)[C@H](Cc2c[nH]c3ccccc23)NC(=O)[C@H](CCCNC(=N)N)NC(=O)[C@@H](Cc2ccccc2)NC(=O)[C@H](Cc2c[nH]cn2)NC1=O [Example 57, Ac-c[Orn-His-D-Phe-Arg-Trp-Glu]-Pro-Ser-Ser-Ser-Lys(biscarboxymethyl)-Ser-Ser-Lys({2-[2-(16-carboxyhexadecanoylamino)ethoxy]ethoxy}acetyl)-NH2] (Ac-[Orn]H[dF]RWEPSSS[Lys(CH2CO2H)2]SSK([AEEA-C17 diacid])-NH2; lactam 1-6)
physchem; pH 6.8, Solubility Conc., pH 6.8, vehicle 10 mM phosphate
  solubility: 47 µM (≈ 105 µg/mL)
physchem; pH 7.1, Solubility Conc., pH 7.1, vehicle 10 mM phosphate
  solubility: 79 µM (≈ 177 µg/mL)
physchem; pH 7.4, Solubility Conc., pH 7.4, vehicle 10 mM phosphate
  solubility: 169 µM (≈ 379 µg/mL)
physchem; pH 7.5, Solubility Conc., pH 7.5, vehicle 10 mM phosphate
  solubility: 395 µM (≈ 886 µg/mL)
physchem; pH 7.5, vehicle 10 mM phosphate
  Solubility Conc.: 284 µM (≈ 637 µg/mL)
physchem; pH 7.6, Solubility Conc., pH 7.6, vehicle 10 mM phosphate
  solubility: 521 µM (≈ 1170 µg/mL)
physchem; pH 7.7, Solubility Conc., pH 7.7, vehicle 10 mM phosphate
  solubility: 408 µM (≈ 915 µg/mL)
physchem; pH 7.8, Solubility Conc., pH 7.8, vehicle 10 mM phosphate
  solubility: 524 µM (≈ 1180 µg/mL)
physchem; pH 8, Solubility Conc., pH 8.0, vehicle 10 mM phosphate
  solubility: 392 µM (≈ 879 µg/mL)
MC1 receptor
  Ki: > 10 µM

## CC(=O)N[C@H]1CCC(=O)NCCC[C@@H](C(=O)N2CCC[C@H]2C(=O)N2CCC[C@H]2C(=O)N[C@@H](CC(=O)O)C(=O)N[C@@H](CCCCN(CC(=O)O)CC(=O)O)C(=O)N[C@@H](CCCCNC(=O)COCCOCCNC(=O)CCCCCCCCCCCCCCC(=O)O)C(N)=O)NC(=O)[C@H](Cc2c[nH]c3ccccc23)NC(=O)[C@H](CCCNC(=N)N)NC(=O)[C@@H](Cc2ccccc2)NC(=O)[C@H](Cc2c[nH]cn2)NC1=O [Example 13, Ac-c[Glu-His-D-Phe-Arg-Trp-Orn]-Pro-Pro-Asp-Lys(biscarboxymethyl)-Lys({2-[2-(15-carboxypentadecanoylamino)ethoxy]ethoxy}acetyl)-NH2] (Ac-EH[dF]RW[Orn]PPD[Lys(CH2CO2H)2]K([AEEA-C16 diacid])-NH2; lactam 1-6)
physchem; pH 5.5, Solubility Conc.
  solubility: 348 µM (≈ 698 µg/mL)
physchem; pH 5.7, Solubility Conc.
  solubility: 494 µM (≈ 991 µg/mL)
physchem; pH 6.1, Solubility Conc.
  solubility: 473 µM (≈ 949 µg/mL)
physchem; pH 6.5, Solubility Conc.
  solubility: 469 µM (≈ 941 µg/mL)
physchem; pH 6.8, Solubility Conc.
  solubility: 459 µM (≈ 921 µg/mL)
physchem; pH 7.1, Solubility Conc.
  solubility: 506 µM (≈ 1020 µg/mL)
physchem; pH 7.3, Solubility Conc.
  solubility: 467 µM (≈ 937 µg/mL)
physchem; pH 7.7, Solubility Conc.
  solubility: 472 µM (≈ 947 µg/mL)
physchem; pH 7.9, Solubility Conc.
  solubility: 493 µM (≈ 989 µg/mL)
MC1 receptor
  Ki: > 10 µM

## CC(=O)N[C@H]1CCC(=O)NCCC[C@@H](C(=O)N2CCC[C@H]2C(=O)N2CCC[C@H]2C(=O)N[C@@H](CCCNC(=N)N)C(=O)N[C@@H](CC(=O)O)C(=O)N[C@@H](CCCCN(CC(=O)O)CC(=O)O)C(=O)N[C@@H](CCCCNC(=O)COCCOCCNC(=O)CCCCCCCCCCCCCCCc2nnn[nH]2)C(N)=O)NC(=O)[C@H](Cc2c[nH]c3ccccc23)NC(=O)[C@H](CCCNC(=N)N)NC(=O)[C@@H](Cc2ccccc2)NC(=O)[C@H](CCC(N)=O)NC1=O [Example 37, Ac-c[Glu-Gln-D-Phe-Arg-Trp-Orn]-Pro-Pro-Arg-Asp-Lys(biscarboxymethyl)-Lys[(2-{2-[16-(tetrazol-5-yl)hexadecanoylamino]ethoxy}ethoxy)acetyl]-NH2] (Ac-EQ[dF]RW[Orn]PPRD[Lys(CH2CO2H)2]K([AEEA-Palmitoyl(16-(5-tetrazolyl))])-NH2; lactam 1-6)
physchem; pH 5.7, Solubility Conc.
  solubility: 95 µM (≈ 208 µg/mL)
physchem; pH 6.4, Solubility Conc.
  solubility: 464 µM (≈ 1020 µg/mL)
physchem; pH 6.6, Solubility Conc.
  solubility: 450 µM (≈ 986 µg/mL)
physchem; pH 6.8, Solubility Conc.
  solubility: 453 µM (≈ 993 µg/mL)
physchem; pH 7, Solubility Conc.
  solubility: 510 µM (≈ 1120 µg/mL)
physchem; pH 7.2, Solubility Conc.
  solubility: 482 µM (≈ 1060 µg/mL)
physchem; pH 7.3, Solubility Conc.
  solubility: 486 µM (≈ 1070 µg/mL)
physchem; pH 7.5, Solubility Conc.
  solubility: 458 µM (≈ 1000 µg/mL)
physchem; pH 7.6, Solubility Conc.
  solubility: 467 µM (≈ 1020 µg/mL)
physchem; pH 7.9, Solubility Conc.
  solubility: 507 µM (≈ 1110 µg/mL)
MC1 receptor
  Ki: > 10 µM
